33 molecules from patent publication US6117840A, “CS-1 peptidomimetics, compositions and methods of using the same” (Cytel Corporation, priority 1997, dated 2000) can be followed below.

Each structure is given as a SMILES string. Square brackets hold non-standard residues; d marks the D form. Peptide text beside a SMILES is read from it. * marks the point of attachment. Phe(4-NO2) = N[C@@H](Cc1ccc([N+](=O)[O-])cc1)C(=O)O; hPhe = N[C@@H](CCc1ccccc1)C(=O)O; Cha = N[C@@H](CC1CCCCC1)C(=O)O; Phg = N[C@H](C(=O)O)c1ccccc1; PhAc = O=C(Cc1ccccc1)*; Inp = O=C(O)C1CCNCC1; Bz = O=C(c1ccccc1)*

The test concerns the target T1, VLA-4 (Homo sapiens, UniProt P05556+P13612).
T1 construct: host or cells: Jurkat (human T lymphoblastic line)
Type of test: cell-based. The settings on record: for RELATIVE POTENCY (inhibition of VLA-4 binding CS-1): relative to standard peptide SEQ ID NO:3 (=1), normalized IC50, about one-tenth or less of SEQ ID NO:3 assigned zero. On the procedure:
Binding inhibition is measured here as a concentration of peptide that inhibits one-half the binding between a standard number of Jurkat cells and a standard amount of CS-1 peptide bound to the surface of a microtiter plate well. Those concentrations are conveniently expressed as IC50 values, smaller numbers indicating a lower concentration required to inhibit 50 percent binding and therefore greater potency. Further specifics of this assay are provided hereinafter.
Jurkat cells (ATCC TIB 152), a human T lymphoblastic line, labeled with ^51 chromium were used to assay in vitro binding inhibition provided by various peptides discussed herein.
The plates were prepared as follows: The 25-mer CS1 peptide (SEQ ID NO:1) dissolved at 0.5-1 μg/ml in a buffer of 0.1M NaHCO3 at pH 9.5 tha also contained 10 μg/ml of bovine serum albumin (BSA) or a conjugate o the CS1 peptide linked to ovalbumin (CS1-OVA) dissolved at 1-2.5 μg/ml in the same buffer was used as the substrate. Each well of the microtiter plates was coated with 50 μl of substrate or buffer alone for controls The wells were permitted to dry out completely and were then rinsed twice with PBS at pH 7.4. Nonspecific binding sites of each well were then blocked using 200 μl per well of RPMI/1 percent BSA for two hours at room temperature. Both solid phaseaffixed substrates provided similar results.
Jurkat cells (3-5×10^6 cells) were placed into a 15 ml Falcon.TM roundbottom tube with a cap. The tube was centrifuged, and the extra medium was then removed.
Two hundred microliters of a ^51 Cr labeling solution were added to th centrifuged cells and maintained in contact with the cells for 90-120 minutes in a warm room. This procedure typically provides about 50,000-100,000 cpm/well with about 80-100 percent cell viability. Longer contact times provide a greater amount of labeling but lower cell viability.
The labeled cells are washed with (i) complete medium, (ii) 1 mM EDTA/PBS and then (iii) RPMI/1 percent BSA free of serum components. The cells are centrifuged after each washing. The cells are finally resuspended in serumfree RPMI/1 percent BSA at a concentration of 1×10^6 viabl cells/ml, which provides a concentration that is diluted by onehalf in th assay.
Inhibitor peptides are prepared as stock solutions at 20 mg/ml in DMSO in 1.5 ml cryogenic screwcap vials, and were stored at -70° C. Using Flow™ roundbottom or Vbottom microtiter plates, the inhibitor peptides were prepared at twice the assay concentration in RPMI/1 percent BSA at 6 μl/well.
Four initial dilutions were typically used.
The ^51 Crlabeled cells (1×10^6 cells at 60 μl/well) were then admixed with the diluted peptide solutions. The admixtures were maintained at room temperature (about 22° C.) for 30 minutes.
One hundred microliters of each inhibitor peptide/cell admixture were transferred to the substratecoated wells. This was done in triplicate for each dilution. The resulting plates were incubated for 30 minutes at 37° C. and then washed gently three times with RPMI/1 percent BSA at 200 μl/well. Binding was observed microscopically, particularly after the second wash.
The bound cells were then lysed by the addition of a 0.5 percent solution of sodium dodecylsulfate in water at 100 μl/well. The resulting solutions were then processed for counting and calculation of IC50 values following usual procedures. Appropriate positive and negative controls were used with each plate so that the results of separate assays could be normalized and compared.

T1 sequence (P13612 34-1032): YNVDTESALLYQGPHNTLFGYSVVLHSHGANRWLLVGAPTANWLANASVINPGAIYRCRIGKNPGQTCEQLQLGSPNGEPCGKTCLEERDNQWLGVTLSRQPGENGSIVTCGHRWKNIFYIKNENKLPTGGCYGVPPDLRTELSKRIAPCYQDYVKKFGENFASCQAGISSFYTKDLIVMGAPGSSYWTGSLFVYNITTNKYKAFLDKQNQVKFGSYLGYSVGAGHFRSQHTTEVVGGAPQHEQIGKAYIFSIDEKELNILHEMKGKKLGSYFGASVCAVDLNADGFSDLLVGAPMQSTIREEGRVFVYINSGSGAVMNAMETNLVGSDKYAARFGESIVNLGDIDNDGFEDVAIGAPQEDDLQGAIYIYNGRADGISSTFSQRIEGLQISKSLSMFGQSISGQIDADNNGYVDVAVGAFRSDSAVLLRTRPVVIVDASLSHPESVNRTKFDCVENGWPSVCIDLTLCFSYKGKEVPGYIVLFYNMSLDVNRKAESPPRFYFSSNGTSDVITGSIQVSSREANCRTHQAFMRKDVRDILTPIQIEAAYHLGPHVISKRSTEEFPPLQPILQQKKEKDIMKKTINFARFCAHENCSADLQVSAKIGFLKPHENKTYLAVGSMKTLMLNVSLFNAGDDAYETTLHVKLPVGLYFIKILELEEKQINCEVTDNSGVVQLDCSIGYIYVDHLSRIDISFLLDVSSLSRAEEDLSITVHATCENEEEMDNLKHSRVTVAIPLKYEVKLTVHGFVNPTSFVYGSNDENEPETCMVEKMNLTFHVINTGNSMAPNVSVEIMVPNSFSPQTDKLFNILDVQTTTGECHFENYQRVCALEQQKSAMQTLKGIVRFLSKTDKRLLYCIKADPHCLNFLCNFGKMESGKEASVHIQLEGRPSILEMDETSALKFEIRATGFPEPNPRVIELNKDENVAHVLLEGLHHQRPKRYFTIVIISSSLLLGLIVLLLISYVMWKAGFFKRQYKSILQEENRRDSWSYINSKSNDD
T1 sequence (P05556 21-798): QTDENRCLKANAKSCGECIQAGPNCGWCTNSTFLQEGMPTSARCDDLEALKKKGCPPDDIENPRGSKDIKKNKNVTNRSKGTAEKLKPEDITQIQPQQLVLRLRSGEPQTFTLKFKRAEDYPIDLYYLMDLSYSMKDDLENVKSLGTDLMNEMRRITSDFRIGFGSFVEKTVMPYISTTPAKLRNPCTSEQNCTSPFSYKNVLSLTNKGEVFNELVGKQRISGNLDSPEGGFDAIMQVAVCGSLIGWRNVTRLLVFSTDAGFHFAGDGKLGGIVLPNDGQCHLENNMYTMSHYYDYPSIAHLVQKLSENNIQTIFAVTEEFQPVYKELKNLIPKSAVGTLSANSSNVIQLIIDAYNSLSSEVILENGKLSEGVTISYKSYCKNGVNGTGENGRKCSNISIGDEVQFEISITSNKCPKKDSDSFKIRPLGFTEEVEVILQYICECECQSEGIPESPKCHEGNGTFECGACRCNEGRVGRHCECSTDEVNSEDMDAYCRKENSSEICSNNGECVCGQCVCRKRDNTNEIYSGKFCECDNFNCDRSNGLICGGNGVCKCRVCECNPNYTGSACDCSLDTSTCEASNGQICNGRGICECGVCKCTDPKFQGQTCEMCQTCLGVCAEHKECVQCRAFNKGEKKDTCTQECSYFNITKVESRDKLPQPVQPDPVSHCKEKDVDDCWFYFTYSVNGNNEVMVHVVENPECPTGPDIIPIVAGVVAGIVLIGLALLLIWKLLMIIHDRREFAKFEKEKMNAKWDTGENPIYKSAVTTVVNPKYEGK

Regarding `CC(C)C[C@H](NC(=O)Cc1ccccc1)C(=O)N[C@@H](CC(=O)O)C(=O)N[C@@H](Cc1ccccc1)C(=O)N1CCC[C@H]1C(=O)NCCN(CCN(CCN(CCNC(=O)[C@@H]1CCCN1C(=O)[C@H](Cc1ccccc1)NC(=O)[C@H](CC(=O)O)NC(=O)[C@H](CC(C)C)NC(=O)Cc1ccccc1)C(=O)[C@@H]1CCCN1C(=O)[C@H](Cc1ccccc1)NC(=O)[C@H](CC(=O)O)NC(=O)[C@H](CC(C)C)NC(=O)Cc1ccccc1)C(=O)[C@@H]1CCCN1C(=O)[C@H](Cc1ccccc1)NC(=O)[C@H](CC(=O)O)NC(=O)[C@H](CC(C)C)NC(=O)Cc1ccccc1)C(=O)[C@@H]1CCCN1C(=O)[C@H](Cc1ccccc1)NC(=O)[C@H](CC(=O)O)NC(=O)[C@H](CC(C)C)NC(=O)Cc1ccccc1`, the “VLA-4 binding inhibition, times better than the standard 10-mer peptide of SEQ ID NO:3” value is listed as “about 210 times”.
With `CC(C)C[C@H](NC(=O)Cc1ccccc1)C(=O)N[C@@H](CC(=O)O)C(=O)N[C@@H](Cc1ccccc1)C(=O)N1CCCC1CO` (stereo partly drawn), the “RELATIVE POTENCY (inhibition of VLA-4 binding CS-1)” value turned out to be 184.
On to `CC(C)C[C@H](NC(=O)Cc1ccccc1)C(=O)N[C@@H](CC(=O)O)C(=O)N[C@@H](Cc1ccccc1)C(=O)N1CC(O)C(O)C1` (stereo partly drawn), for which the “RELATIVE POTENCY (inhibition of VLA-4 binding CS-1)” value came to 194.
For `CC(C)C[C@H](NC(=O)Cc1ccccc1)C(=O)N[C@@H](CC(=O)O)C(=O)N[C@@H](Cc1ccccc1)C(=O)N1CCN(CCOCCO)CC1`, the “RELATIVE POTENCY (inhibition of VLA-4 binding CS-1)” value is reported as 505.
As for `CC(C)C[C@H](NC(=O)Cc1ccccc1)C(=O)N[C@@H](CC(=O)O)C(=O)N[C@@H](Cc1ccccc1)C(=O)N1CCN(CC(N)=O)CC1`, the “RELATIVE POTENCY (inhibition of VLA-4 binding CS-1)” value was 319.
Turning to `CC(C)C[C@H](NC(=O)Cc1ccccc1)C(=O)N[C@@H](CC(=O)O)C(=O)N[C@@H](Cc1ccccc1)C(=O)N1CCN(CC(=O)O)CC1`, the “RELATIVE POTENCY (inhibition of VLA-4 binding CS-1)” value is given as 2579.
As for `CC(C)C[C@H](NC(=O)Cc1ccccc1)C(=O)N[C@@H](CC(=O)O)C(=O)N[C@@H](Cc1ccccc1)C(=O)N1CCS(=O)(=O)CC1`, the “RELATIVE POTENCY (inhibition of VLA-4 binding CS-1)” value was 1060.
Regarding `CC(C)C[C@H](NC(=O)Cc1ccccc1)C(=O)N[C@@H](CC(=O)O)C(=O)N[C@@H](Cc1ccccc1)C(=O)N1CCC(O)CC1`, the “RELATIVE POTENCY (inhibition of VLA-4 binding CS-1)” value was determined as 603.
As to `CC(C)C[C@H](NC(=O)Cc1ccccc1)C(=O)N[C@@H](CC(=O)O)C(=O)N[C@@H](Cc1ccccc1)C(=O)N1CC[N+](C)(C)CC1`, the “RELATIVE POTENCY (inhibition of VLA-4 binding CS-1)” value is reported as 313.
Regarding `CCCCCCCCCC(=O)OC1CCN(C(=O)[C@H](Cc2ccccc2)NC(=O)[C@H](CC(=O)O)NC(=O)[C@H](CC(C)C)NC(=O)Cc2ccccc2)CC1`, the “RELATIVE POTENCY (inhibition of VLA-4 binding CS-1)” value was below 1.
Consider `CCCCCCCCCCCCCCCCCC(=O)OC1CCN(C(=O)[C@H](Cc2ccccc2)NC(=O)[C@H](CC(=O)O)NC(=O)[C@H](CC(C)C)NC(=O)Cc2ccccc2)CC1`, for which the “RELATIVE POTENCY (inhibition of VLA-4 binding CS-1)” value is below 1.
Consider `CC(C)C[C@H](NC(=O)Cc1ccccc1)C(=O)N[C@@H](CC(=O)O)C(=O)N[C@@H](Cc1ccccc1)C(=O)N1CCSCC1`, for which the “RELATIVE POTENCY (inhibition of VLA-4 binding CS-1)” value was determined as 493.
As to `CC(C)C[C@H](NC(=O)Cc1ccccc1)C(=O)N[C@@H](CC(=O)O)C(=O)N[C@H]1Cc2ccccc2[C@H]2CCCCN2C1=O`, the “RELATIVE POTENCY (inhibition of VLA-4 binding CS-1)” value was determined as 50.
On to `CC(C)C[C@H](NC(=O)Cc1ccccc1)C(=O)N[C@@H](CC(=O)O)C(=O)N[C@@H]1CCCCNC1=O`, for which the “RELATIVE POTENCY (inhibition of VLA-4 binding CS-1)” value is on record as 17.
For the molecule `CC(C)C[C@H](NC(=O)Cc1ccccc1)C(=O)N[C@@H](CC(=O)O)C(=O)NC1Cc2ccccc2N(CCN2CCOCC2)C1=O` (stereo partly drawn), the “RELATIVE POTENCY (inhibition of VLA-4 binding CS-1)” value was found to be 20.
`CC(C)C[C@H](NC(=O)Cc1ccccc1)C(=O)N[C@@H](CC(=O)O)C(=O)NC1CCCCN(CC(N)=O)C1=O` (stereo partly drawn): the “RELATIVE POTENCY (inhibition of VLA-4 binding CS-1)” value is 97.
Consider `CC(C)C[C@H](NC(=O)Cc1ccccc1)C(=O)N[C@@H](CC(=O)O)C(=O)NC1Cc2ccccc2N(CC(C)C)C1=O` (stereo partly drawn), for which the “RELATIVE POTENCY (inhibition of VLA-4 binding CS-1)” value is on record as 6.
As for `CC(C)C[C@H](NC(=O)Cc1ccccc1)C(=O)N[C@@H](CC(=O)O)C(=O)NC(Cc1ccccc1)Cc1ccccc1`, the “RELATIVE POTENCY (inhibition of VLA-4 binding CS-1)” value is listed as 0.
`CC(C)C[C@H](NC(=O)Cc1ccccc1)C(=O)N[C@@H](CC(=O)O)C(=O)NCCN1CCOCC1`: the “RELATIVE POTENCY (inhibition of VLA-4 binding CS-1)” value was 13.
As to `CC(C)C[C@H](NC(=O)Cc1ccccc1)C(=O)N[C@@H](CC(=O)O)C(=O)NC1Cc2ccccc2NC1=O` (stereo partly drawn), the “RELATIVE POTENCY (inhibition of VLA-4 binding CS-1)” value came to 31.
With `CC(C)C[C@H](NC(=O)Cc1ccccc1)C(=O)N[C@@H](CC(=O)O)C(=O)NC1Cc2ccccc2N(CC(N)=O)C1=O` (stereo partly drawn), the “RELATIVE POTENCY (inhibition of VLA-4 binding CS-1)” value was 45.
In the case of `CC(C)C[C@H](NC(=O)Cc1ccccc1)C(=O)N[C@@H](CC(=O)O)C(=O)NC1CCCCNC1=O` (stereo partly drawn), the “RELATIVE POTENCY (inhibition of VLA-4 binding CS-1)” value is given as 27.
As for `CC(C)C[C@H](NC(=O)Cc1ccccc1)C(=O)N[C@@H](CC(=O)O)C(=O)NN(Cc1ccccc1)C(=O)C1CCCC1`, the “RELATIVE POTENCY (inhibition of VLA-4 binding CS-1)” value is given as 1.
Regarding `CC(C)C[C@H](NC(=O)Cc1ccccc1)C(=O)N[C@@H](CC(=O)O)C(=O)NN(Cc1ccccc1)Cc1ccccc1`, the “RELATIVE POTENCY (inhibition of VLA-4 binding CS-1)” value was found to be 0.
Take `CC(C)C[C@H](NC(=O)Cc1ccccc1)C(=O)N[C@@H](CC(=O)O)C(=O)NC1CCN(C2CCCCC2)C1=O` (stereo partly drawn): the “RELATIVE POTENCY (inhibition of VLA-4 binding CS-1)” value came out at 7.
Same read-out and setting: as for `NC(=O)[C@H]1CCCN1C(=O)[C@H](Cc1ccccc1)NC(=O)[C@H](CC(=O)O)NC(=O)[C@H](CC1CCCCC1)NC(=O)c1ccccc1` (Bz-[Cha]DF[dP]-NH2), the figure is 17; as for `CC(C)[C@H](NC(=O)[C@H](CC(=O)O)NC(=O)[C@H](CC1CCCCC1)NC(=O)c1ccccc1)C(=O)N1CCC[C@@H]1C(N)=O` (Bz-[Cha]DV[dP]-NH2), 11.
On the same count and under the same terms, the result for `CC(C)C[C@H](NC(=O)Cc1ccccc1)C(=O)N[C@@H](CC(=O)O)C(=O)N[C@@H](Cc1ccccc1)C(=O)N1CCC(C(N)=O)CC1` (PhAc-LDF[Inp]-NH2) reads 933; that for `CC(C)C[C@H](NC(=O)Cc1ccccc1)C(=O)N[C@@H](CC(=O)O)C(=O)N[C@@H](Cc1ccccc1)C(=O)N1CCC(C(=O)O)CC1` (PhAc-LDF[Inp]-OH), 828.
For the molecule `CC(C)C[C@H](NC(=O)Cc1ccccc1)C(=O)N[C@@H](CC(=O)O)C(=O)N[C@@H](Cc1ccc([N+](=O)[O-])cc1)C(=O)N1CCC[C@@H]1C(N)=O` (PhAc-LD[Phe(4-NO2)][dP]-NH2), the “RELATIVE POTENCY (inhibition of VLA-4 binding CS-1)” value worked out at 40.
On the same count and under the same terms, the result for `CC(C)C[C@H](NC(=O)Cc1ccccc1)C(=O)N[C@@H](CC(=O)O)C(=O)N[C@H](C(=O)N1CCC[C@@H]1C(N)=O)c1ccccc1` (PhAc-LD[Phg][dP]-NH2) reads 61; that for `CC(C)C[C@H](NC(=O)Cc1ccccc1)C(=O)N[C@@H](CC(=O)O)C(=O)N[C@@H](CCc1ccccc1)C(=O)N1CCC[C@@H]1C(N)=O` (PhAc-LD[hPhe][dP]-NH2), 94; that for `NC(=O)[C@H]1CCCN1C(=O)[C@H](Cc1ccccc1)NC(=O)[C@H](CC(=O)O)NC(=O)[C@H](CC1CCCCC1)NC(=O)Cc1ccccc1` (PhAc-[Cha]DF[dP]-NH2), 217.
